{"source": "patent US20220259254A1", "about": "“TRANS-CYCLOOCTENE BIOORTHOGONAL AGENTS AND USES IN CANCER AND IMMUNOTHERAPY” (Tambo, Inc., priority 2019, published 2022)", "key": {"MC38 tumor [1]": {"system": "MC38 tumor", "experiment": "MC38 subcutaneous syngeneic single tumor model, tumor growth inhibition", "assay_type": "in vivo, C57BL/6 mice"}, "[2]": {"system": "tumor-infiltrating lymphocytes (TILs)", "experiment": "flow cytometry of tumor-infiltrating immune cells in dual MC38 tumors", "assay_type": "in vivo, C57BL/6 mice", "conditions": "for % CD45+CD3+ cells versus saline: 2 weeks after treatment completion", "protocol": "In the same study, 2 groups (n=10) of mice with dual MC38 tumors were used for tumor immune cell profiling and were treated with either BIOMATERIAL 1/PRODRUG 1 TREATMENT or saline. Each group was further divided into 2 subgroups of 5 mice each. Tumor collection was performed on the first and second subgroups at 1 and 2 weeks, respectively. […] The cell percentage of each population of interest was identified (Table 6).\nFor tumor samples, tumor tissues were homogenized using the Miltenyi Tumor Dissociation kit. Single cell suspension from tumor samples were RBC lysed, centrifuged to pellet cells, washed with cold PBS and resuspend cell pellets in the staining buffer and store on ice. Cells were then ready for FACS antibody staining.\n1. For each sample, added cells (<10×10^6 cells/tube) in the staining buffer, into an Eppendorf tube labeled with correct sample name. • Panel 1: Live-dead/CD45/CD3/CD4/CD8/CD25/PD-1 • Panel 2: Live-dead/CD45/CD3/CD4/CD25/Foxp3\n2. For each tissue type (tumor), prepared two extra tubes (see below) and added cells (<10×10^6 cells/tube) in the staining buffer into these two tubes. • Tube: no-color • Tube: live-dead only*** • Tube: no-color (fix/perm) • Tube: live-dead only (fix/perm) • Note: These two tubes served as gating control for each tissue type. • *** The live-dead only tube was also used for live-dead compensation. Compensation for 8 fluorochrome-conjugated antibodies was prepared separately, using compensation beads from BD and following vendor's manual.\n3. Prepared FcR blocking solution (100 μL per tube×tube numbers) by diluting FcR blocking antibody at 1/100 in staining buffer • Note: Since two Brilliant Violet dyes were used in the FACS panel, BD Horizon Brilliant Stain Buffer were added at 5 μL per 100 μL FcR blocking solution\n4. Resuspended cell pellets in 100 μL FcR blocking solution and incubated at RT in dark for 3 min\n5. For panel 1, added FACS antibodies to desired concentrations (2 μg/ml for each antibody). Incubated at 4° C. in dark for 30 min. For panel 2, added FACS antibodies (except foxp3) to desired concentrations (2 μg/ml for each antibody), incubated at 4° C. in dark for 30 min, then fixated/permeabilized the cells at 4° C. for 40-50 min, and added foxp3 antibody to desired concentrations (2 μg/ml) at 4° C. in dark for 40 min.\n6. Added 1 ml staining buffer, centrifuged at 350 g for 4 min at 4° C. to wash and pellet cells\n7. Resuspended cells in “Tube: no color” with 500 μL staining buffer (no live-dead added)\n8. Resuspended cells in all other tubes with 500 μL staining buffer with 1 μg/ml live-dead\n9. Cells were ready for FACS analysis and were subjected to analysis by the Attune Nxt Flow Cytomter (ThermoFisher)\nFor Group 9 and Group 10, 5 and 5 mice were sacrificed at 1 and 2 weeks respectively after dosing completion. Tumors were collected for FACS."}, "MC38 tumor cells": {"system": "MC38 tumor cells", "experiment": "MC38 tumor re-challenge study", "assay_type": "in vivo, C57BL/6 mice", "conditions": "5×10^5 MC38 cells SC at left flank on Day 70; versus naïve mice; listed as BIOMATERIAL 1/PRODRUG 1", "protocol": "Aside from the dual-tumor groups, this study also investigated a tumor re-implantation in mice inoculated with only one MC38 tumor. On Day 38, all animals in group G2 (Table 1)(n=8) were treated with a second cycle of BIOMATERIAL 1/PRODRUG 1-100-μL intratumoral BIOMATERIAL 1 injection followed by 5 daily doses (1 dose per day) of PRODRUG 1—this time at 11.9 mg/kg/dose Dox Eq (59.3 mg/kg/cycle Dox Eq).\nIn addition, mice from group G3 (Table 1) (n=5), and mice from dual tumor groups G6, G7, and G8 (n=10) were rechallenged."}, "MC38 tumor [3]": {"system": "MC38 tumor", "experiment": "MC38 dual tumor model (injected and non-injected tumor), tumor growth inhibition and survival;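 as to all read-outs here: male C57BL/6 mice carrying two subcutaneous MC38 flank tumors, with treatment given peritumorally beside the larger tumor only and both tumors sized by caliper three times per week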", "conditions": "for response of non-injected tumors: non-injected tumor (FIG. 6C); for antitumor activity on non-injected tumor compared with G4: P<0.001; for 1-T/C (%) / T/C (%): vs G4 saline; for TV, tumor volume at Day 7: Day 7 = treatment start, all groups peritumoral BIOMATERIAL 1; for survival, statistical difference from Saline: log-rank (Mantel-Cox) test; for tumor growth curves, statistical difference from Saline: unpaired t test with Welch's correction for each day, groups 4, 5, 8", "method": "For groups 4-10 (dual tumor model), Immunocompetent male C57BL/6 mice were inoculated SC in the right flank with 5×10^5 MC38 tumor cells (large injected tumor) and in the left flank with 1×10^5 MC38 tumor cells (small non-injected tumor).\nPrior to injection, the MC38 cells were suspended in 0.1 mL DMEM media mixed with 50% Matrigel for tumor development. When the average tumor volume of the large tumor reached approximately 100 mm^3, animals were randomly grouped according to body weight and tumor volume into 10 treatment groups with 5-10 mice per group. All groups received peritumoral biomaterial injections (100 μL/mouse) near the large tumor (hereafter, the injected tumor). One hour later, groups 1, 4 and 10 were IV administered saline control (QD×5 days); groups 2, 8 and 9 were IV administered PRODRUG 1 prodrug (28.6 mg/kg Dox Eq QD×5 days; cumulative dose of 143 mg/kg Dox Eq) and group 5 was IV administered Dox HCl control (MTD; 8.1 mg/kg Q4D×3 doses; cumulative dose of 24.3 mg/kg). Tumor volumes for both tumors were measured three times weekly in two dimensions using a caliper, and the volume expressed in mm^3. 8 groups were used to assess the tumor growth inhibition, while groups 9 and 10 (PRODRUG 1, saline n=10/group) were used to determine the immune cell infiltration using flow cytometry. Groups 3, 6 and 7 (n=10) were used to test Dox+ TLR9 agonist (SL-01) and PRODRUG 1+ TLR9 agonist. The TLR9 agonist was given as an intratumoral injection in the primary tumors alone after the last PRODRUG 1 or Dox dose at 25 μg per mouse.\nEighty-five animals were enrolled into the efficacy study. When tumor volume reached an average volume of approximately 100 mm^3, animals were randomized as below using block randomization by Excel based upon their tumor size. […] 5×10^5 MC-38 cells suspended in 100 μL PBS mixed with 50% matrix gel were inoculated subcutaneously into the right flank. For Groups 4 through 10, 1×10^5MC-38 cells suspended in 100 μL PBS mixed with 50% matrix gel were inoculated subcutaneously into the left flank.\nTumor volume was measured thrice weekly in two dimensions using a caliper, and the volume was expressed in mm^3 using the formula: V=0.5 a×b^2, where a and b are the long and short diameters of the tumor, respectively. The tumor volume was then used for calculations of both T-C and T/C values. T-C was calculated with T as the median time (in days) required for the treatment group tumors to reach a predetermined size, and C as the median time (in days) for the control group tumors to reach the same size."}, "bacteria": {"system": "bacteria", "experiment": "activity against bacteria measured by microcalorimetry", "assay_type": "cell-based", "conditions": "tested up to 64 μg/ml (32 μM)", "source_text": "Example A7C can be synthesized using a protocol analogous to Example A7B."}, "[4]": {"conditions": "injected tumor, single tumor mice, D21, vs G1 saline"}, "[5]": {"conditions": "dual tumor mice, injected tumor"}, "[6]": {"conditions": "dual tumor mice, non-injected tumor"}, "[7]": {"conditions": "injected tumor, dual tumor mice, D21"}, "[8]": {"conditions": "injected tumor, dual tumor mice"}, "[9]": {"conditions": "non-injected tumor, dual tumor mice, D24"}, "[10]": {"conditions": "non-injected tumor, dual tumor mice"}}, "note": "“Also recorded” adds a separate entry of the source."}
{"smiles": "COc1cccc2c1C(=O)c1c(O)c3c(c(O)c1C2=O)C[C@@](O)(C(=O)CO)C[C@@H]3O[C@H]1CC(NC(=O)O[C@@H]2/C=C/CC[C@](C)(C(=O)NCC(=O)O)CC2)[C@H](O)C(C)O1", "note": "(stereo partly shown) [PRODRUG 1]", "values": [{"measurement": "complete remission", "setting": "MC38 tumor [1]; MC38 model", "result": "10 % of mice treated"}, {"measurement": "1-T/C (%)", "setting": "MC38 tumor [1]; [4]", "result": 62, "unit": "%"}, {"measurement": "T/C (%)", "setting": "MC38 tumor [1]; [4]", "result": 38, "unit": "%"}, {"measurement": "TV, tumor volume at Day 7", "setting": "MC38 tumor [1]; injected tumor, single tumor mice, Day 7 = treatment start, all groups peritumoral BIOMATERIAL 1", "result": "94 ± 6.3", "unit": "mm^3"}, {"measurement": "TV, tumor volume at Day 21", "setting": "MC38 tumor [1]; injected tumor, single tumor mice, Day 21, all groups peritumoral BIOMATERIAL 1", "result": "393 ± 100.5", "unit": "mm^3"}, {"measurement": "antitumor activity compared with control group G1", "setting": "MC38 tumor [1]; single tumor mice, P<0.001", "result": "significant antitumor activity"}, {"measurement": "immune cell profile versus saline group", "setting": "[2]; 1 week after completion of treatment", "result": "no differences"}, {"measurement": "total number of TILs", "setting": "[2]; injected and non-injected tumors, at 2 weeks, not after 1 week, listed as BIOMATERIAL 1/PRODRUG 1", "result": "increased the total number of TILs"}, {"measurement": "PD-1 expression in CD8+ cells versus saline", "setting": "[2]; injected or non-injected tumors", "result": "no difference"}, {"measurement": "percentage of CD4+ cells versus saline", "setting": "[2]; injected tumor, 2 weeks", "result": "significantly higher"}, {"measurement": "percentage of CD8+ cells versus saline", "setting": "[2]; injected tumor, 2 weeks", "result": "significantly higher"}, {"measurement": "percentage of PD-1+CD4+ T cells versus saline", "setting": "[2]; injected tumors, 2 weeks", "result": "higher percentage"}, {"measurement": "% CD45+CD3+ cells versus saline", "setting": "[2]; injected tumors", "result": "increased"}, {"measurement": "percentage of FoxP3+ cells versus saline", "setting": "[2]; injected tumors, 2 weeks, no statistical significance", "result": "lower"}, {"measurement": "CD4+ cell percentage versus saline", "setting": "[2]; non-injected tumor, 2 weeks", "result": "significantly higher"}, {"measurement": "CD4+CD25+ FoxP3+ cells (Tregs)", "setting": "[2]; non-injected tumors, 2 weeks", "result": "no CD4+CD25+ FoxP3+ cells observed"}, {"measurement": "difference in PD-1+CD4+ T cells versus saline", "setting": "[2]; non-injected tumors, 2 weeks", "result": "not observed"}, {"measurement": "% CD45+CD3+ cells versus saline", "setting": "[2]; non-injected tumors", "result": "increased"}, {"measurement": "cell percentage of CD8+ cells versus saline", "setting": "[2]; non-injected tumors, 2 weeks, no statistical significance", "result": "appeared higher"}, {"measurement": "tumor growth after re-challenge with MC38 cells", "setting": "MC38 tumor cells", "result": "suppressed; also recorded: sustained anti-tumor response"}, {"measurement": "antitumor activity on injected tumor compared with control group G4", "setting": "MC38 tumor [3]; [5]", "result": "significant antitumor activity"}, {"measurement": "antitumor response / tumor growth inhibition compared with conventional Dox treatment", "setting": "MC38 tumor [3]; dual tumor mice, injected tumor, p<0.05, listed as BIOMATERIAL 1/PRODRUG 1", "result": "significantly improved antitumor response; also recorded: improved tumor growth inhibition"}, {"measurement": "response of non-injected tumors", "setting": "MC38 tumor [3]; dual tumor mice", "result": "sustained anti-tumor responses"}, {"measurement": "antitumor activity on non-injected tumor compared with G4", "setting": "MC38 tumor [3]; [6]", "result": "significant antitumor activity"}, {"measurement": "overall survival compared with conventional Dox treatment", "setting": "MC38 tumor [3]; dual tumor mice, p<0.001, listed as BIOMATERIAL 1/PRODRUG 1", "result": "significantly improved"}, {"measurement": "1-T/C (%)", "setting": "MC38 tumor [3]; [7]", "result": 75, "unit": "%"}, {"measurement": "T/C (%)", "setting": "MC38 tumor [3]; [7]", "result": 25, "unit": "%"}, {"measurement": "TV, tumor volume at Day 7", "setting": "MC38 tumor [3]; [8]", "result": "93 ± 5.6", "unit": "mm^3"}, {"measurement": "TV, tumor volume at Day 21", "setting": "MC38 tumor [3]; [8]", "result": "322 ± 45.9", "unit": "mm^3"}, {"measurement": "survival, statistical difference from Saline", "setting": "MC38 tumor [3]; dual tumor mice", "result": "significantly different"}, {"measurement": "1-T/C (%)", "setting": "MC38 tumor [3]; [9]", "result": 70, "unit": "%"}, {"measurement": "T/C (%)", "setting": "MC38 tumor [3]; [9]", "result": 30, "unit": "%"}, {"measurement": "TV, tumor volume at Day 12", "setting": "MC38 tumor [3]; [10]", "result": "42 ± 3.8", "unit": "mm^3"}, {"measurement": "TV, tumor volume at Day 24", "setting": "MC38 tumor [3]; [10]", "result": "53 ± 5.2", "unit": "mm^3"}, {"measurement": "tumor growth curves, statistical difference from Saline", "setting": "MC38 tumor [3]", "result": "significantly different"}]}
{"smiles": "CC(C)CC(C(=O)N[C@H]1C(=O)N[C@@H](CC(N)=O)C(=O)N[C@H]2C(=O)N[C@H]3C(=O)N[C@H](C(=O)N[C@H](C(=O)O)c4cc(O)cc(O)c4-c4cc3ccc4O)[C@H](O)c3ccc(c(Cl)c3)Oc3cc2cc(c3O[C@@H]2O[C@H](CO)[C@@H](O)[C@H](O)[C@H]2O[C@H]2C[C@](C)(NC(=O)O[C@@H]3/C=C/CC[C@](C)(C(=O)NCC(=O)O)CC3)[C@H](O)[C@H](C)O2)Oc2ccc(cc2Cl)[C@H]1O)N(C)C(=O)O[C@@H]1/C=C/CC[C@](C)(C(=O)NCC(=O)O)CC1", "note": "(stereo partly shown) [Vanco-Bis-TCO-Glycine]", "values": [{"measurement": "activity against bacteria", "setting": "bacteria", "result": "no activity"}]}
{"smiles": "COc1cccc2c1C(=O)c1c(O)c3c(c(O)c1C2=O)C[C@@](O)(C(=O)CO)C[C@@H]3O[C@H]1C[C@H](N)[C@H](O)[C@H](C)O1", "note": "[Dox, doxorubicin, reference compound]", "values": [{"measurement": "antitumor activity on injected tumor compared with control group G4", "setting": "MC38 tumor [3]; [5]", "result": "significant antitumor activity"}, {"measurement": "response of non-injected tumors", "setting": "MC38 tumor [3]; dual tumor mice", "result": "progressive growth"}, {"measurement": "antitumor activity on non-injected tumor compared with G4", "setting": "MC38 tumor [3]; [6]", "result": "significant antitumor activity"}, {"measurement": "1-T/C (%)", "setting": "MC38 tumor [3]; [7]", "result": 34, "unit": "%"}, {"measurement": "T/C (%)", "setting": "MC38 tumor [3]; [7]", "result": 66, "unit": "%"}, {"measurement": "TV, tumor volume at Day 7", "setting": "MC38 tumor [3]; [8]", "result": "93 ± 8.5", "unit": "mm^3"}, {"measurement": "TV, tumor volume at Day 21", "setting": "MC38 tumor [3]; [8]", "result": "810 ± 196.4", "unit": "mm^3"}, {"measurement": "survival, statistical difference from Saline", "setting": "MC38 tumor [3]; dual tumor mice", "result": "not significantly different"}, {"measurement": "1-T/C (%)", "setting": "MC38 tumor [3]; [9]", "result": 66, "unit": "%"}, {"measurement": "T/C (%)", "setting": "MC38 tumor [3]; [9]", "result": 34, "unit": "%"}, {"measurement": "TV, tumor volume at Day 12", "setting": "MC38 tumor [3]; [10]", "result": "67 ± 18.8", "unit": "mm^3"}, {"measurement": "TV, tumor volume at Day 24", "setting": "MC38 tumor [3]; [10]", "result": "93 ± 19.2", "unit": "mm^3"}, {"measurement": "tumor growth curves, statistical difference from Saline", "setting": "MC38 tumor [3]", "result": "not significantly different"}]}
